{"source": "the supplement of paper PMC10307832", "test_in_all_cases": "relative viability (nuclei count vs DMSO), 5 days (fraction); higher = more cells survive", "key": {"201T": {"tested_on": "201T", "how_it_was_run": "(§1)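 Relative viability divides the nuclei count in treated wells by that in vehicle wells. Lung cancer cell lines were seeded in 1536-well plates, dosed by pin tool the next day, and fixed and stained after 5 days in one step with final 0.05% Triton X-100, 1% formaldehyde and 1 ug/ml Hoechst. Dosing was a single drug or a fixed anchor-drug dose plus five library-drug doses (not always all listed) in √10 steps, and values are medians of duplicate plates imaged at 4×.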"}, "A-427": {"tested_on": "A-427", "how_it_was_run": "as §1"}, "BEN": {"tested_on": "BEN", "how_it_was_run": "as §1"}, "COR-L23": {"tested_on": "COR-L23", "how_it_was_run": "as §1"}, "EKVX": {"tested_on": "EKVX", "how_it_was_run": "as §1"}, "HARA": {"tested_on": "HARA", "how_it_was_run": "as §1"}, "HCC-15": {"tested_on": "HCC-15", "how_it_was_run": "as §1"}, "HCC-44": {"tested_on": "HCC-44", "how_it_was_run": "as §1"}, "HCC-827": {"tested_on": "HCC-827", "how_it_was_run": "as §1"}, "NCI-H1437": {"tested_on": "NCI-H1437", "how_it_was_run": "as §1"}, "NCI-H1666": {"tested_on": "NCI-H1666", "how_it_was_run": "as §1"}, "NCI-H1792": {"tested_on": "NCI-H1792", "how_it_was_run": "as §1"}, "NCI-H1975": {"tested_on": "NCI-H1975", "how_it_was_run": "as §1"}, "NCI-H23": {"tested_on": "NCI-H23", "how_it_was_run": "as §1"}, "NCI-H358": {"tested_on": "NCI-H358", "how_it_was_run": "as §1"}, "NCI-H441": {"tested_on": "NCI-H441", "how_it_was_run": "as §1"}, "NCI-H596": {"tested_on": "NCI-H596", "how_it_was_run": "as §1"}, "NCI-H650": {"tested_on": "NCI-H650", "how_it_was_run": "as §1"}, "NCI-H838": {"tested_on": "NCI-H838", "how_it_was_run": "as §1"}, "SK-MES-1": {"tested_on": "SK-MES-1", "how_it_was_run": "as §1"}}}
{"smiles": "CCN(CC)CCCCNc1ncc2cc(-c3cc(OC)cc(OC)c3)c(NC(=O)NC(C)(C)C)nc2n1", "note": "+ C[C@]1(O)C[C@@H](c2nc(-c3ccc4ccc(-c5ccccc5)nc4c3)c3c(N)nccn32)C1 [Linsitinib] (partner 1 µM)", "values": [{"measurement": "relative viability", "setting": "201T; first compound 0.01 µM", "result": 1.07}, {"measurement": "relative viability", "setting": "201T; first compound 0.03162 µM", "result": 1.02}, {"measurement": "relative viability", "setting": "201T; first compound 0.1 µM", "result": 1.07}, {"measurement": "relative viability", "setting": "201T; first compound 0.3162 µM", "result": 1.12}, {"measurement": "relative viability", "setting": "201T; first compound 1 µM", "result": 1.02}, {"measurement": "relative viability", "setting": "A-427; first compound 0.01 µM", "result": 1.12}, {"measurement": "relative viability", "setting": "A-427; first compound 0.03162 µM", "result": 1.17}, {"measurement": "relative viability", "setting": "A-427; first compound 0.1 µM", "result": 1.21}, {"measurement": "relative viability", "setting": "A-427; first compound 0.3162 µM", "result": 1.18}, {"measurement": "relative viability", "setting": "A-427; first compound 1 µM", "result": 0.993}, {"measurement": "relative viability", "setting": "BEN; first compound 0.01 µM", "result": 1.11}, {"measurement": "relative viability", "setting": "BEN; first compound 0.03162 µM", "result": 0.838}, {"measurement": "relative viability", "setting": "BEN; first compound 0.1 µM", "result": 0.894}, {"measurement": "relative viability", "setting": "BEN; first compound 0.3162 µM", "result": 1.07}, {"measurement": "relative viability", "setting": "BEN; first compound 1 µM", "result": 0.691}, {"measurement": "relative viability", "setting": "COR-L23; first compound 0.01 µM", "result": 1}, {"measurement": "relative viability", "setting": "COR-L23; first compound 0.03162 µM", "result": 1.2}, {"measurement": "relative viability", "setting": "COR-L23; first compound 0.1 µM", "result": 1.15}, {"measurement": "relative viability", "setting": "COR-L23; first compound 0.3162 µM", "result": 1.09}, {"measurement": "relative viability", "setting": "COR-L23; first compound 1 µM", "result": 0.948}, {"measurement": "relative viability", "setting": "EKVX; first compound 0.01 µM", "result": 1.11}, {"measurement": "relative viability", "setting": "EKVX; first compound 0.03162 µM", "result": 1.1}, {"measurement": "relative viability", "setting": "EKVX; first compound 0.1 µM", "result": 0.93}, {"measurement": "relative viability", "setting": "EKVX; first compound 0.3162 µM", "result": 1.09}, {"measurement": "relative viability", "setting": "EKVX; first compound 1 µM", "result": 0.883}, {"measurement": "relative viability", "setting": "HARA; first compound 0.01 µM", "result": 1.04}, {"measurement": "relative viability", "setting": "HARA; first compound 0.03162 µM", "result": 1}, {"measurement": "relative viability", "setting": "HARA; first compound 0.1 µM", "result": 0.989}, {"measurement": "relative viability", "setting": "HARA; first compound 0.3162 µM", "result": 0.933}, {"measurement": "relative viability", "setting": "HARA; first compound 1 µM", "result": 0.672}, {"measurement": "relative viability", "setting": "HCC-15; first compound 0.01 µM", "result": 1.04}, {"measurement": "relative viability", "setting": "HCC-15; first compound 0.03162 µM", "result": 0.875}, {"measurement": "relative viability", "setting": "HCC-15; first compound 0.1 µM", "result": 0.951}, {"measurement": "relative viability", "setting": "HCC-15; first compound 0.3162 µM", "result": 0.925}, {"measurement": "relative viability", "setting": "HCC-15; first compound 1 µM", "result": 0.872}, {"measurement": "relative viability", "setting": "HCC-44; first compound 0.01 µM", "result": 0.752}, {"measurement": "relative viability", "setting": "HCC-44; first compound 0.03162 µM", "result": 0.709}, {"measurement": "relative viability", "setting": "HCC-44; first compound 0.1 µM", "result": 0.749}, {"measurement": "relative viability", "setting": "HCC-44; first compound 0.3162 µM", "result": 0.684}, {"measurement": "relative viability", "setting": "HCC-44; first compound 1 µM", "result": 0.614}, {"measurement": "relative viability", "setting": "HCC-827; first compound 0.01 µM", "result": 0.933}, {"measurement": "relative viability", "setting": "HCC-827; first compound 0.03162 µM", "result": 0.987}, {"measurement": "relative viability", "setting": "HCC-827; first compound 0.1 µM", "result": 1.01}, {"measurement": "relative viability", "setting": "HCC-827; first compound 0.3162 µM", "result": 0.982}, {"measurement": "relative viability", "setting": "HCC-827; first compound 1 µM", "result": 0.961}, {"measurement": "relative viability", "setting": "NCI-H1437; first compound 0.01 µM", "result": 1.27}, {"measurement": "relative viability", "setting": "NCI-H1437; first compound 0.03162 µM", "result": 1.05}, {"measurement": "relative viability", "setting": "NCI-H1437; first compound 0.1 µM", "result": 1.13}, {"measurement": "relative viability", "setting": "NCI-H1437; first compound 0.3162 µM", "result": 1.22}, {"measurement": "relative viability", "setting": "NCI-H1437; first compound 1 µM", "result": 0.817}, {"measurement": "relative viability", "setting": "NCI-H1666; first compound 0.01 µM", "result": 1.04}, {"measurement": "relative viability", "setting": "NCI-H1666; first compound 0.03162 µM", "result": 0.674}, {"measurement": "relative viability", "setting": "NCI-H1666; first compound 0.1 µM", "result": 0.997}, {"measurement": "relative viability", "setting": "NCI-H1666; first compound 0.3162 µM", "result": 0.944}, {"measurement": "relative viability", "setting": "NCI-H1666; first compound 1 µM", "result": 0.726}, {"measurement": "relative viability", "setting": "NCI-H1792; first compound 0.01 µM", "result": 0.572}, {"measurement": "relative viability", "setting": "NCI-H1792; first compound 0.03162 µM", "result": 0.501}, {"measurement": "relative viability", "setting": "NCI-H1792; first compound 0.1 µM", "result": 0.475}, {"measurement": "relative viability", "setting": "NCI-H1792; first compound 0.3162 µM", "result": 0.696}, {"measurement": "relative viability", "setting": "NCI-H1792; first compound 1 µM", "result": 0.295}, {"measurement": "relative viability", "setting": "NCI-H1975; first compound 0.01 µM", "result": 0.976}, {"measurement": "relative viability", "setting": "NCI-H1975; first compound 0.03162 µM", "result": 0.949}, {"measurement": "relative viability", "setting": "NCI-H1975; first compound 0.1 µM", "result": 1.11}, {"measurement": "relative viability", "setting": "NCI-H1975; first compound 0.3162 µM", "result": 1.01}, {"measurement": "relative viability", "setting": "NCI-H1975; first compound 1 µM", "result": 0.856}, {"measurement": "relative viability", "setting": "NCI-H23; first compound 0.01 µM", "result": 0.669}, {"measurement": "relative viability", "setting": "NCI-H23; first compound 0.03162 µM", "result": 0.63}, {"measurement": "relative viability", "setting": "NCI-H23; first compound 0.1 µM", "result": 0.644}, {"measurement": "relative viability", "setting": "NCI-H23; first compound 0.3162 µM", "result": 0.601}, {"measurement": "relative viability", "setting": "NCI-H23; first compound 1 µM", "result": 0.516}, {"measurement": "relative viability", "setting": "NCI-H358; first compound 0.01 µM", "result": 0.731}, {"measurement": "relative viability", "setting": "NCI-H358; first compound 0.03162 µM", "result": 0.748}, {"measurement": "relative viability", "setting": "NCI-H358; first compound 0.1 µM", "result": 0.767}, {"measurement": "relative viability", "setting": "NCI-H358; first compound 0.3162 µM", "result": 0.859}, {"measurement": "relative viability", "setting": "NCI-H358; first compound 1 µM", "result": 0.695}, {"measurement": "relative viability", "setting": "NCI-H441; first compound 0.01 µM", "result": 0.626}, {"measurement": "relative viability", "setting": "NCI-H441; first compound 0.03162 µM", "result": 0.441}, {"measurement": "relative viability", "setting": "NCI-H441; first compound 0.1 µM", "result": 0.808}, {"measurement": "relative viability", "setting": "NCI-H441; first compound 0.3162 µM", "result": 0.635}, {"measurement": "relative viability", "setting": "NCI-H441; first compound 1 µM", "result": 0.432}, {"measurement": "relative viability", "setting": "NCI-H596; first compound 0.01 µM", "result": 1.1}, {"measurement": "relative viability", "setting": "NCI-H596; first compound 0.03162 µM", "result": 1.05}, {"measurement": "relative viability", "setting": "NCI-H596; first compound 0.1 µM", "result": 1.05}, {"measurement": "relative viability", "setting": "NCI-H596; first compound 0.3162 µM", "result": 1.07}, {"measurement": "relative viability", "setting": "NCI-H596; first compound 1 µM", "result": 0.814}, {"measurement": "relative viability", "setting": "NCI-H650; first compound 0.01 µM", "result": 0.792}, {"measurement": "relative viability", "setting": "NCI-H650; first compound 0.03162 µM", "result": 0.929}, {"measurement": "relative viability", "setting": "NCI-H650; first compound 0.1 µM", "result": 0.97}, {"measurement": "relative viability", "setting": "NCI-H650; first compound 0.3162 µM", "result": 1.1}, {"measurement": "relative viability", "setting": "NCI-H650; first compound 1 µM", "result": 0.789}, {"measurement": "relative viability", "setting": "NCI-H838; first compound 0.01 µM", "result": 1.13}, {"measurement": "relative viability", "setting": "NCI-H838; first compound 0.03162 µM", "result": 1}, {"measurement": "relative viability", "setting": "NCI-H838; first compound 0.1 µM", "result": 1.05}, {"measurement": "relative viability", "setting": "NCI-H838; first compound 0.3162 µM", "result": 1.01}, {"measurement": "relative viability", "setting": "NCI-H838; first compound 1 µM", "result": 0.603}, {"measurement": "relative viability", "setting": "SK-MES-1; first compound 0.01 µM", "result": 1.04}, {"measurement": "relative viability", "setting": "SK-MES-1; first compound 0.03162 µM", "result": 1.26}, {"measurement": "relative viability", "setting": "SK-MES-1; first compound 0.1 µM", "result": 1.16}, {"measurement": "relative viability", "setting": "SK-MES-1; first compound 0.3162 µM", "result": 1.16}, {"measurement": "relative viability", "setting": "SK-MES-1; first compound 1 µM", "result": 1.09}]}
